Source: patent US5849587A, “Method of inhibiting viral replication in eukaryotic cells and of inducing apoptosis of virally-infected cells” (Cornell Research Foundation, Inc., priority 1995, dated 1998)
“Also recorded” adds a separate entry of the source.

Key:
HIV-1 RNA = experiment: Splicing analysis (Northern blot) of HIV-1 RNA in PMA-induced ACH-2 cells; assay type: cell-based; conditions: 200 μM, FIG. 7
Description: At about 9-kb is the position of unspliced viral MRNA species representing the infectious viral genome and encoding key structural proteins for core and capsid. At about 4-kb is the position of incompletely spliced viral MRNA species encoding structural and regulatory proteins. At about 2-kb is the position of completely spliced viral MRNA species encoding regulatory proteins, such as Rev. […] Lane B is for the high level expression of HIV-1 RNA after induction with PMA; note the presence of the 9-kb species.
ACH-2 cells were incubated with hypusine inhibitors (mimosine, HK-1) and induced with PMA as outlined in Example II A. From control cells, from cells induced with PMA, and from PMA-induced cells treated with 200 μM mimosine/HK-1, in each case aliqouts of 1.2×10^7 cells, the total cellular RNA was isolated by the guanidinium isothiocyanate-cesium chloride method [Chirgwin et al., Biochemistrv 18, 5294-5299 (1979), which is hereby incorporated by reference]. Equal quantities of RNA from each cell sample were electrophoresed on a 1% agarose-formaldehyde gel, transferred to nitrocellulose, and hybridized with randomly primed, ^32 P-dCTP-labeled genomic HIV-1 probe pBH10 [Ratner et al., Nature 313, 277-284 (1985), which is hereby incorporated by reference]. Following hybridization, the blots were washed extensively, dried, and autoradiographed. […]

[1] = system: HIV-1 p24 antigen, H9 cells; experiment: p24 antigen levels (ELISA) in chronically HIV-1 infected H9 cells; assay type: cell-based; conditions: 48 hours, FIGS. 8 and 9
Experimental: 1. Dose-dependency of antiviral effect. Cells of the human T lymphocyte line H9, chronically and productively infected with the Lai (IIIb) strain of HIV-1, were harvested during logarithmic proliferation, extensively washed to remove viral antigens and infectious particles, and re-suspendedin serum-supplemented and antibiotic-containing RPMI 1640 medium at a density of 2×10^5 cells/ml. After incubation with increasing concentrations of mimosine or HK-1 for 48 hours, the cells were harvested, lysed, and used to determine the intracellular amount of the p24 antigen derived from the p55 Gag polyprotein, using a commercially available, p24-specific ELISA method (Coulter, Hialeah, Fla.); the same method was also used to quantify the extracellular level of p24 antigen that had accumulated in the supernatant during incubation with the hypusine inhibitors. In addition, titration assays were performed using CEM target cells to measure the infectivity of virus produced in the absence and presence of the hypusine inhibitors using the procedure of Prince et al., Proc. Natl. Acad. Sci. USA 85, 6944-6948 (1988), which is hereby incorporated by reference. The half-maximal tissue culture infectious doses (TCID50) of HIV-1 per ml of test sample were calculated by the Spearman-Karber method.

[2] = system: HIV-1 infected ACH-2 cells; experiment: Cell membrane integrity (trypan blue exclusion, retention of labeled eIF-5A), HIV-1 infected cells; assay type: cell-based, human; conditions: during 18-21 h incubation and 2-4 hours after withdrawal, FIGS. 12A and B
Experimental: (§1) FIGS. 12A and B show the loss of cell membrane integrity suffered by HIV-1 producing ACH-2 cells and their uninfected parent cell line CEM during incubation with and after withdrawal of mimosine and HK-1. The black bar indicates the duration of inhibitor exposure, the open bar the duration of inhibitor withdrawal. Cell membrane integrity was determined by the ability of the cells to exclude the low-molecular weight dye trypan blue (FIGS. 12A and B) and to retain the spermidine-derived radioactive label of a single, obligatory intracellular protein species, eIF-5A and its deoxyhypusyl precursor (FIG. 12A).
(§2) ACH-2 cells were incubated with hypusine inhibitors (mimosine, HK-1) and induced with PMA as outlined in Example II A, except that the duration of exposure to inhibitor was extended to 18-21 hours and that cells were labeled as detailed in Example I B. Half of the cells were then harvested and processed for detection of apoptosis, while the other half was washed free of inhibitors and re-incubated in fresh medium for 2-4 hours, followed by harvesting and processing for detection of […] apoptosis. Using the same protocol, cultures of the parent CEM cell line were incubated in parallel. […]

[3] = system: uninfected parent cell line CEM; experiment: Cell membrane integrity / viability, uninfected parent cells; assay type: cell-based, human; conditions: incubation and withdrawal, FIG. 12B
Experimental: as §1, §2

[4] = system: HIV-1 infected ACH-2 cells; experiment: Flow cytometry of genomic DNA 3'-ends (apoptosis), HIV-1 infected cells; assay type: cell-based, human; conditions: for fragmentation of genomic DNA / number of DNA 3'-ends, ACH-2: FIG. 13
Experimental: FIGS. 13A-F show the flowcytometrically determined distribution of the number of fluorescently labeled 3'-ends in the genomic DNA of HIV-1 producing ACH-2 cells ("ACH-2") and their uninfected parent cell line CEM ("CEM"), both receiving no treatment ("NT") or treatment for 18 hours with either 200 μM mimosine ("MIM") or 200 μM HK-1 ("HK1"). […] This is the hallmark of irreversible auto-destruction of a cell's genetic library.
FIGS. 14A-H show the flowcytometrically determined distribution of the number of fluorescently labeled 3'-ends in the genomic DNA of HIV-1 producing ACH-2 cells ("ACH-2") and of their uninfected parent cell line CEM ("CEM"), both receiving no treatment ("NT") or treatment for 18 hours with 200 μM mimosine ("MIM"), followed by inhibitor withdrawal and reincubation in fresh medium for 2 hours.
ACH-2 cells were incubated with hypusine inhibitors (mimosine, HK-1) and induced with PMA as outlined in Example II A, except that the duration of exposure to inhibitor was extended to 18-21 hours and that cells were labeled as detailed in Example I B. Half of the cells were then harvested and processed for detection of apoptosis, while the other half was washed free of inhibitors and re-incubated in fresh medium for 2-4 hours, followed by harvesting and processing for detection of […] apoptosis. Using the same protocol, cultures of the parent CEM cell line were incubated in parallel. For assessment of apoptosis, cell viability was measured by exclusion of the dye trypan blue, by retention of the ^3 H-spermidine-derived intracellular radioactivity incorporated into the obligatory intracellular protein eIF-5A, and by direct fluorescence detection of the intemucleosomal degradation of genomic DNA. Such irreversible genome degradation signals the activation of pre-programmed suicide mechanisms within any cell, which is the hallmark of apoptosis, and inescapably results in cell death [Compton, Cancer Metast. 11, 105-119 (1992), which is hereby incorporated by reference]. For the latter method, a commercially available kit was used (Oncor, Gaithersburg, Md.). Flow cytometric analysis of apoptotic cells was performed in accord with standard procedures.

Row | Structure (SMILES) | HIV-1 RNA splicing pattern (HIV-1 RNA) | intra- and extracellular p24 antigen levels [1] | cell membrane integrity, HIV-1 producing ACH-2 [2] | cell membrane integrity / viability, uninfected CEM [3] | DNA fragmentation after withdrawal, ACH-2 ([4]; 200 μM 18 hours, then 2 hours after withdrawal, FIG. 14) | fragmentation of genomic DNA / number of DNA 3'-ends, ACH-2 ([4]; 200 μM, 18 hours) | second population (higher amount of 3'-ends) position, ACH-2 ([4]; 200 μM, 18 hours, FIG. 14) | average fluorescence peak position, ACH-2 ([4]; 200 μM, 18 hours, FIG. 14, control around channel 100)
1 | N[C@@H](Cn1ccc(=O)c(O)c1)C(=O)O [L-Mimosine] | apparent lack of the 9-kb species | inhibitory effect on the intracellular (FIG. 8A) and extracellular (FIG. 8B) levels of the p24 antigen | the most marked, uniform and rapid decline of membrane integrity developed 2-4 hours after inhibitor withdrawal | no such loss of membrane integrity was noted | this population did not decrease, but rather became the predominant one; also recorded: Within the 2 hours of release, this shift increased markedly | triggered fragmentation of the genomic DNA; also recorded: increase of the number of 3'-ends in their DNA | ~210 channel | 140 channel
2 | Cc1c(O)c(=O)ccn1C [HK-1, 1,2-dimethyl-3-hydroxypyrid-4-one] | apparent lack of 9-kb and 4-kb species | inhibitory effect on the extracellular (FIG. 9A) and intracellular (FIG. 9B) levels of the p24 antigen | the most marked, uniform and rapid decline of membrane integrity developed 2-4 hours after inhibitor withdrawal | no such loss of membrane integrity was noted | – | triggered fragmentation of the genomic DNA; also recorded: increase of the number of 3'-ends in their DNA | – | –
